Experimental data published in US20220023282A1 (priority 2018, published 2022).
≈ marks a conversion by molar mass, not a printed value.

Legend:
M. chelonae = settings: cited from earlier work
M. simiae = settings: cited from earlier work
M. hiberniae = settings: cited from earlier work
[1] = system: Mycobacterium tuberculosis H37Rv; settings: standardized broth-dilution assay; cited from earlier work
M. qordonae = settings: cited from earlier work
M. kansasii = settings: cited from earlier work
M. malmoense = settings: cited from earlier work
M. abscessus [2] = settings: cited from earlier work
M. phlei = settings: cited from earlier work
MOR M. tuberculosis = settings: cited from earlier work
A549 = assay: Cell viability (MTT) of pulmonary epithelial cells; format: cell-based
Experimental: (§1) MTT is the tetrazolium dye 3-(4,5-dimethylthiazol-2-yl)-2,5-diphenyltetrazolium bromide which is converted by mitochondrial reductase to its insoluble formazan. In living cells, the insoluble formazan can be dissolved by adding the detergent dimethylsulfoxide for 15 minutes. The absorption of the respective dye is measured by a plate-reader at 590 nm. For the calculation of the viability after the incubation of the test compounds a positive and a negative control is included. Hank's balanced salt solution (HBSS) is used as a negative control and the resulting absorbance value is set to 100% viability. The positive control (1% Triton-X-100) is used to set 0% viability. Accordingly, the IC50 value of the test formulation can be determined by measuring a dose-response curve in log-scale.
(§2) These formulations (designated as 100%) were diluted with HBSS to give the following formulations for testing:
(§3) Cells were treated with the test formulations for 4 hours at 37° C. The viability of the cells after exposure was used to set up a dose-response curve in logarithmic scale. A sigmoidal fit enables the IC20, IC50, and IC80 calculations of the test substances.

M. smeqmatis mc2 155 = settings: cited from earlier work
M. avium [3] = settings: cited from earlier work
M. marinum = settings: cited from earlier work
[4] = in vivo, cited from earlier work
[5] = system: Drug-susceptible M. tuberculosis; settings: cited from earlier work
M. abscessus [6] = settings: cited from earlier work; remark: listed apart in the source
M. fortuitum = settings: cited from earlier work
M. ulcerans = settings: cited from earlier work
M. scrofulaceum = settings: cited from earlier work
M. vaccae = settings: cited from earlier work
M. avium [7] = settings: cited from earlier work; remark: listed apart in the source
Calu-3 = assay: Cell viability (MTT) of pulmonary epithelial cells; format: cell-based
Experimental: as §1, §2, §3

M. maqeritense = settings: cited from earlier work
[8] = human, in vivo, 400 mg; cited from earlier work

COc1nc2ccc(Br)cc2cc1[C@@H](c1ccccc1)[C@@](O)(CCN(C)C)c1cccc2ccccc12 [bedaquiline, (1R,2S)-1-(6-bromo-2-methoxyquinolin-3-yl)-4-(dimethylamino)-2-(naphthalen-1-yl)-1-phenylbutan-2-ol]
MIC (M. chelonae): 0.06 to 0.5 µg/mL | MIC (M. simiae): 0.03 µg/mL (≈ 0.054 µM) | MIC (M. hiberniae): 0.03 µg/mL (≈ 0.054 µM) | MIC99 [1]: 0.015 to 0.12 µg/mL | MIC (M. qordonae): 0.03 µg/mL (≈ 0.054 µM) | MIC (M. kansasii): 0.03 µg/mL (≈ 0.054 µM) | MIC (M. malmoense): 0.50 µg/mL (≈ 0.9 µM) | MIC (M. abscessus [2]): 0.25 µg/mL (≈ 0.45 µM) | MIC (M. phlei): 0.03 to 0.13 µg/mL | MIC (MOR M. tuberculosis): 0.06 µg/mL (≈ 0.108 µM) | cytotoxic effect on cell viability as compared with vehicle (A549): minimal cytotoxic effect | MIC (M. smeqmatis mc2 155): 0.12 µg/mL (≈ 0.216 µM) | MIC (M. avium [3]): 0.03 to 0.13 µg/mL | MIC (M. marinum): 0.003 µg/mL (≈ 0.0054 µM) | time to maximal plasma concentration after administration ([4]; po): 4 to 6 h | effective half-life [4]: 24 h | half life in tissues [4]: more than 5 months | terminal half life [4]: 5.5 months | MIC [5]: 0.06 µg/mL (≈ 0.108 µM) | MIC99 (M. abscessus [6]): 0.25 to 0.5 µg/mL | MIC (M. fortuitum): 0.13 to 0.25 µg/mL | MIC (M. ulcerans): 0.5 µg/mL (≈ 0.9 µM) | MIC (M. scrofulaceum): 0.03 µg/mL (≈ 0.054 µM) | MIC (M. vaccae): 0.03 µg/mL (≈ 0.054 µM) | MIC99 (M. avium [7]): 0.01 to 0.03 µg/mL | cytotoxic effect on cell viability as compared with vehicle (Calu-3): minimal cytotoxic effect | MIC (M. maqeritense): 0.03 µg/mL (≈ 0.054 µM) | Cmax in the sputum [8]: 5000 ng/mL
